{"source": "ChEMBL document CHEMBL1138672", "about": "“Dopamine/serotonin receptor ligands. 9. Oxygen-containing midsized heterocyclic ring systems and nonrigidized analogues. A step toward dopamine D5 receptor selectivity” (J Med Chem, 2004)", "key": {"[1]": {"molecular_target": "D(2) dopamine receptor (Homo sapiens, UniProt P14416)", "sequence (P14416 whole entry)": "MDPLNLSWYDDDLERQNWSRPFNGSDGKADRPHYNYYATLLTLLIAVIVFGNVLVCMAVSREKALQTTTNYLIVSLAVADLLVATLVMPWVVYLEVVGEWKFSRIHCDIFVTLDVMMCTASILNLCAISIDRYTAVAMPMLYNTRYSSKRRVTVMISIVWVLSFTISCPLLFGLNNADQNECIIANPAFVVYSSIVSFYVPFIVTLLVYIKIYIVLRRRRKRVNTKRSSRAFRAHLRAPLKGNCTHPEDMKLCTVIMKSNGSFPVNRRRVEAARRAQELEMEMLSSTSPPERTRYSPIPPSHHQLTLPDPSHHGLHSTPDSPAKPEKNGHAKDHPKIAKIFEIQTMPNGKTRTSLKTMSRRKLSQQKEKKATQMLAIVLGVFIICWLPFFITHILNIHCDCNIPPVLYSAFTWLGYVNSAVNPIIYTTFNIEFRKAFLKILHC", "test": "Binding affinity for human recombinant dopamine receptor D2L"}, "[2]": {"molecular_target": "D(1A) dopamine receptor (Homo sapiens, UniProt P21728)", "sequence (P21728 whole entry)": "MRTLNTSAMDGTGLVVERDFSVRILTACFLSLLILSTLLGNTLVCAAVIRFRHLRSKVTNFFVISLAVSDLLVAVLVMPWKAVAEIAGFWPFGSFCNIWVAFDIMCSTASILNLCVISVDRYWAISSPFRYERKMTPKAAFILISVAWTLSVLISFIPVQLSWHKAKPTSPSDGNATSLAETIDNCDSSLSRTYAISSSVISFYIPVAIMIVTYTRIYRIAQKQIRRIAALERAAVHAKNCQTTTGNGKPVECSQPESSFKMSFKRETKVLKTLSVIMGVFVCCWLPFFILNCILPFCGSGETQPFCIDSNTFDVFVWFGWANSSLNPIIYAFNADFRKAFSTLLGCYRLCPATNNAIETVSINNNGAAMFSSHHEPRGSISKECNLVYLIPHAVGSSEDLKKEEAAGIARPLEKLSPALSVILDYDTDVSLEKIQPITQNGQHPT", "description": "Binding affinity for human recombinant dopamine receptor D1"}, "[3]": {"molecular_target": "D(1B) dopamine receptor (Homo sapiens, UniProt P21918)", "sequence (P21918 whole entry)": "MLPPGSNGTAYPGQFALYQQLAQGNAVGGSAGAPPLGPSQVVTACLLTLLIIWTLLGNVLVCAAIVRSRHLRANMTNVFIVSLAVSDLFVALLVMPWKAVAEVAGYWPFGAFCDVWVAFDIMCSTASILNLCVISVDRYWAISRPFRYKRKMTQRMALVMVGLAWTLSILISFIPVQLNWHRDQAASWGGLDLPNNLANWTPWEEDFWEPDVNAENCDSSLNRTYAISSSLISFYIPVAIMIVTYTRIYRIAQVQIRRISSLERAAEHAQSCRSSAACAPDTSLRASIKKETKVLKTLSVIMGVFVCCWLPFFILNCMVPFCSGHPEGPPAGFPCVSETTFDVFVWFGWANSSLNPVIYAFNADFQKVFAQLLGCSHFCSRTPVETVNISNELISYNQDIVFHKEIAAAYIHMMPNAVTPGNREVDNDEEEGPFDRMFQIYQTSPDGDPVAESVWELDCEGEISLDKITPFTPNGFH", "test": "Binding affinity for human recombinant dopamine receptor D5"}, "[4]": {"molecular_target": "T1, D(4) dopamine receptor (Homo sapiens, UniProt P21917)", "T1 sequence (P21917 whole entry)": "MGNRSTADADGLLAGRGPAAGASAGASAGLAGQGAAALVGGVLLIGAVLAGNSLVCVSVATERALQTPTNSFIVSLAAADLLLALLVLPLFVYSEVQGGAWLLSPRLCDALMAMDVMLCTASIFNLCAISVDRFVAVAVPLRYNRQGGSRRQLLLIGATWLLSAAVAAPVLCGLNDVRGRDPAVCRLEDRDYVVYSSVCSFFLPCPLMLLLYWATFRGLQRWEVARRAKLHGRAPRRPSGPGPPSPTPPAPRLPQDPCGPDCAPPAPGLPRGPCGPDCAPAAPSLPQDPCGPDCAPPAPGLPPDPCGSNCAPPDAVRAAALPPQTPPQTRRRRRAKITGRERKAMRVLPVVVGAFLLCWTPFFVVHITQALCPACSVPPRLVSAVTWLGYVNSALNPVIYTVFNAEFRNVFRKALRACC", "test": "Binding affinity for human recombinant dopamine receptor D4.4"}, "[5]": {"molecular_target": "D(3) dopamine receptor (Homo sapiens, UniProt P35462)", "sequence (P35462 whole entry)": "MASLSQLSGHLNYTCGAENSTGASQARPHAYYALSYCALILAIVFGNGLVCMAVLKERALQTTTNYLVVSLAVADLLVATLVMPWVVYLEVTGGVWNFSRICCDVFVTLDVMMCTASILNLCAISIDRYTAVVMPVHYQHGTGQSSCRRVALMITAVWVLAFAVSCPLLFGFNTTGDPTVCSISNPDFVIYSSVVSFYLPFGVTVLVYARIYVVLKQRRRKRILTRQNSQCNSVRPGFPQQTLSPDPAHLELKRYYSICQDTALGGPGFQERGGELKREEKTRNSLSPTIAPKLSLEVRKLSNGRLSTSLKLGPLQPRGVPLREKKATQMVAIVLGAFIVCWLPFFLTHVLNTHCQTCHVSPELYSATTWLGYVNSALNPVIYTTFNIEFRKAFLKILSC", "description": "Binding affinity for human recombinant dopamine receptor D3"}}}
{"smiles": "COc1ccc2c(c1)OCCN(C)CCc1ccccc1C2", "values": [{"measurement": "Ki", "setting": "[1]", "result": 158, "unit": "nM"}, {"measurement": "Ki", "setting": "[2]", "result": 35.5, "unit": "nM"}, {"measurement": "Ki", "setting": "[3]", "result": 1.8, "unit": "nM"}, {"measurement": "Ki", "setting": "[4]", "result": 546, "unit": "nM"}, {"measurement": "Ki", "setting": "[5]", "result": 1600, "unit": "nM"}]}
{"smiles": "CN1CCOc2cc(O)ccc2Cc2ccccc2CC1", "values": [{"measurement": "Ki", "setting": "[1]", "result": 274, "unit": "nM"}, {"measurement": "Ki", "setting": "[2]", "result": 3.2, "unit": "nM"}, {"measurement": "Ki", "setting": "[3]", "result": 0.57, "unit": "nM"}, {"measurement": "Ki", "setting": "[4]", "result": 375, "unit": "nM"}, {"measurement": "Ki", "setting": "[5]", "result": 1380, "unit": "nM"}]}
{"smiles": "c1ccc(Cc2ccccc2OCCN2CCN(c3ccccc3)CC2)cc1", "values": [{"measurement": "Ki", "setting": "[1]", "result": 4190, "unit": "nM"}, {"measurement": "Ki", "setting": "[2]", "result": 1480, "unit": "nM"}, {"measurement": "Ki", "setting": "[3]", "result": 620, "unit": "nM"}, {"measurement": "Ki", "setting": "[4]", "result": "> 10000", "unit": "nM"}, {"measurement": "Ki", "setting": "[5]", "result": 2860, "unit": "nM"}]}
{"smiles": "CC1CN(CCOc2ccccc2Cc2ccccc2)CCO1", "note": "(stereo not given)", "values": [{"measurement": "Ki", "setting": "[1]", "result": "> 10000", "unit": "nM"}, {"measurement": "Ki", "setting": "[2]", "result": 1680, "unit": "nM"}, {"measurement": "Ki", "setting": "[4]", "result": "> 10000", "unit": "nM"}, {"measurement": "Ki", "setting": "[5]", "result": "> 10000", "unit": "nM"}]}
{"smiles": "OC(c1ccccc1)c1ccccc1OCCN1CCCC1", "note": "(stereo not given)", "values": [{"measurement": "Ki", "setting": "[1]", "result": 6280, "unit": "nM"}, {"measurement": "Ki", "setting": "[2]", "result": 2620, "unit": "nM"}, {"measurement": "Ki", "setting": "[4]", "result": "> 10000", "unit": "nM"}, {"measurement": "Ki", "setting": "[5]", "result": "> 10000", "unit": "nM"}]}
{"smiles": "c1ccc(Cc2ccccc2OCCCN2CCCC2)cc1", "values": [{"measurement": "Ki", "setting": "[1]", "result": 1010, "unit": "nM"}, {"measurement": "Ki", "setting": "[2]", "result": 113, "unit": "nM"}, {"measurement": "Ki", "setting": "[3]", "result": 113, "unit": "nM"}, {"measurement": "Ki", "setting": "[4]", "result": 1260, "unit": "nM"}, {"measurement": "Ki", "setting": "[5]", "result": 2920, "unit": "nM"}]}
{"smiles": "c1ccc(Cc2ccccc2NCCN2CCCC2)cc1", "values": [{"measurement": "Ki", "setting": "[1]", "result": "> 10000", "unit": "nM"}, {"measurement": "Ki", "setting": "[2]", "result": "> 10000", "unit": "nM"}, {"measurement": "Ki", "setting": "[4]", "result": "> 10000", "unit": "nM"}, {"measurement": "Ki", "setting": "[5]", "result": 4650, "unit": "nM"}]}
{"smiles": "c1ccc(Cc2ccccc2OCCN2CCCCC2)cc1", "values": [{"measurement": "Ki", "setting": "[1]", "result": 1020, "unit": "nM"}, {"measurement": "Ki", "setting": "[2]", "result": 33.7, "unit": "nM"}, {"measurement": "Ki", "setting": "[3]", "result": 43, "unit": "nM"}, {"measurement": "Ki", "setting": "[4]", "result": 4480, "unit": "nM"}, {"measurement": "Ki", "setting": "[5]", "result": 7800, "unit": "nM"}]}
{"smiles": "O=C(c1ccccc1)c1ccccc1OCCN1CCCC1", "values": [{"measurement": "Ki", "setting": "[1]", "result": 5320, "unit": "nM"}, {"measurement": "Ki", "setting": "[2]", "result": 1650, "unit": "nM"}, {"measurement": "Ki", "setting": "[4]", "result": "> 10000", "unit": "nM"}, {"measurement": "Ki", "setting": "[5]", "result": 2410, "unit": "nM"}]}
{"smiles": "c1ccc(Cc2ccccc2OCCN2CCOCC2)cc1", "values": [{"measurement": "Ki", "setting": "[1]", "result": "> 10000", "unit": "nM"}, {"measurement": "Ki", "setting": "[2]", "result": 201, "unit": "nM"}, {"measurement": "Ki", "setting": "[3]", "result": 366, "unit": "nM"}, {"measurement": "Ki", "setting": "[4]", "result": 6480, "unit": "nM"}, {"measurement": "Ki", "setting": "[5]", "result": "> 10000", "unit": "nM"}]}
{"smiles": "c1ccc(Cc2ccccc2OCCN2CCCC2)cc1", "values": [{"measurement": "Ki", "setting": "[1]", "result": "> 10000", "unit": "nM"}, {"measurement": "Ki", "setting": "[2]", "result": 379, "unit": "nM"}, {"measurement": "Ki", "setting": "[3]", "result": 951, "unit": "nM"}, {"measurement": "Ki", "setting": "[4]", "result": 1430, "unit": "nM"}, {"measurement": "Ki", "setting": "[5]", "result": 1820, "unit": "nM"}]}
{"smiles": "CCN(CC)CCOc1ccccc1Cc1ccccc1", "note": "[ETOLOXAMINE]", "values": [{"measurement": "Ki", "setting": "[1]", "result": 2020, "unit": "nM"}, {"measurement": "Ki", "setting": "[2]", "result": 1960, "unit": "nM"}, {"measurement": "Ki", "setting": "[4]", "result": "> 10000", "unit": "nM"}, {"measurement": "Ki", "setting": "[5]", "result": 4670, "unit": "nM"}]}
{"smiles": "CN(C)CCOc1ccccc1Cc1ccccc1", "note": "[PHENYLTOLOXAMINE]", "values": [{"measurement": "Ki", "setting": "[1]", "result": 2740, "unit": "nM"}, {"measurement": "Ki", "setting": "[2]", "result": 343, "unit": "nM"}, {"measurement": "Ki", "setting": "[3]", "result": 414, "unit": "nM"}, {"measurement": "Ki", "setting": "[4]", "result": 2760, "unit": "nM"}, {"measurement": "Ki", "setting": "[5]", "result": "> 10000", "unit": "nM"}]}
